As usually defined, the half-life is how long it takes for the measured level to halve. Read a high half-life as slow loss. By logP is commonly meant a log measure of how a compound divides between an organic and an aqueous phase. A lower logP goes with a more hydrophilic compound. For orientation: solubility means the concentration that dissolves in the medium under given conditions.

The source of these data is patent publication US12653807B2, “Modified release formulation for (-)-(3AR,4S,7AR)-4-hydroxy-4-m-tolylethynyl-octahydro-indole-1-carboxylic acid methyl ester” (NOVARTIS AG, priority 2013, dated 2026).

Series [1] can be described thus: half life of AFQ056 used to set the wash out period. As to conditions: human, in vivo, oral; 50 mg and 100 mg doses. From the text: The study has a 3-Latin, 5-sequences×5-period open-label design that is suitable for comparing the pharmacokinetics including relative bioavailability of three modified release formulations of AFQ056. The immediate release capsule formulation (size O, IR) is used as a reference to enable comparisons with data obtained in previously completed trials. This study design allows the comparison of pharmacokinetic profile of AFQ056 from three modified release (MR) formulations relative to the IR formulation under fasted conditions, and to assess the food effect on the pharmacokinetics of the three MR forms. Latin-square design is selected as it offers maximum precision of comparison across different treatments with minimum number of study subjects. The cross-over design permits investigation of all five treatment conditions within each subject and is used to account for interindividual variability. […] Sampling for 72 hours post dose is considered sufficient for characterizing the PK profiles of all formulations, including the MR forms.

A short description of series [2]: distribution coefficient Log P of drug substance. In kind it is physicochemical. On the procedure: AFQ056 is a chiral molecule with 3 asymmetric carbon atoms and has a melting point of about 115° C. One single polymorph has been identified.
The nature of series [3]: solubility of AFQ056 at 37° C. in different aqueous media (FIG. 2). In kind it is physicochemical. As to conditions: pure aqueous solution with raising ethanol levels. On the procedure: FIG. 2 graphically depicts the solubility of AFQ056 at 37° C. in different aqueous media. […] Up to the amount of about 20% of ethanol in the solutions, the LDAO (Lauryldimethylamine N-oxide) in water solution and the water-ethanol solution show a different solubility pattern of AFQ056. In the presence of about 40% ethanol in the solutions, both the LDAO in water solution and the water-ethanol solution show a similar solubility for AFQ056.
The solubility pattern of AFQ056 was examined ([…]). […] In pure aqueous solutions the solubility of AFQ056 steadily increases with raising ethanol concentrations. The solubility pattern of AFQ056 in a LDAO water-ethanol solution is distinct from the solubility pattern of AFQ056 in a pure aqueous solution only up to an amount of 20% ethanol present in the solution. […] Immediate release forms of AFQ056 have therefore the inherent risk of dose dumping and can create severe consequences for the patient if ethanol-containing beverages are consumed in parallel. Particle size distribution is also an important factor influencing the dissolution of a drug substance and is known to influence the drug release from matrix tablets.

Series [4] can be described thus: solubility in water and in ethanol at room temperature. In kind it is physicochemical. To be noted: for solubility: room temperature. From the text:
Particle size distribution is also an important factor influencing the dissolution of a drug substance and is known to influence the drug release from matrix tablets.

Series [5] relates to L-dopa induced dyskinesias. Description: earlier studies of IR AFQ056 in Parkinson's disease patients. The format is in vivo, human. To be noted: IR formulation. The source says: AFQ056 has previously been formulated as a hard gelatin capsule and as a powder for oral suspension, both with immediate release (IR) properties. […] The IR formulation used in these studies required twice-daily dosing.

For series [6] the following is noted: Roberts et al., cited from earlier work.

Values after ≈ are worked out from the molar mass of the structure shown. Like-named read-outs stand apart in the source and are kept apart here.

In turn, `COC(=O)N1CC[C@@H]2[C@H]1CCC[C@@]2(O)C#Cc1cccc(C)c1` [AFQ056, (−)-(3aR,4S,7aR)-Octahydro-4-hydroxy-4-[(3-methylphenyl)ethynyl]-1H-indole-1-carboxylic acid methyl ester] registered a half-life in series [1] of 7 to 17 h. This molecule also had a logP in series [2] of 4.7. Further, the “solubility with raising ethanol levels” value in series [3] is “steadily increasing solubility”. The solubility in series [4] (organic solvent or mixture, ethanol, read-out: Solubility in ethanol) was about 53000 µg/mL (≈ 169 mM). In addition, the “solubility in organic solvents (in words)” value in series [4] (organic solvents such as ethanol) is reported as “soluble”. Moreover, the “solubility in water (in words)” value in series [4] (water) is on record as “hardly soluble”. Further, the solubility in series [4] (water, read-out: Solubility in water) is about 20 µg/mL (≈ 0.0638 mM). Besides, in series [5] (Parkinson's disease patients), the “effect on L-dopa induced dyskinesias” value is on record as “reduction in L-dopa induced dyskinesias” and the “effect on underlying Parkinsonian motor symptoms” value is recorded as “without inducing any clinically or statistically significant worsening”. Also, the “most frequent adverse events” value in series [5] (patients) was “dizziness, dyskinesia, nausea, fatigue, and hallucinations”.

Take `CC(=O)Oc1ccccc1C(=O)O` [Aspirin]: the Solubility in ethanol result in series [6] (ethanol) is “about 237 mg/ml”. In addition, the Solubility in water in series [6] (water) was 8400 µg/mL (≈ 46.6 mM).
